In brackets after ≈: the same amount, converted by molar mass.

Results on two molecules are retold here after patent US7994158B2, “Method for inhibiting tumor growth with dehydrosulphurenic acid extracted from Antrodia cinnamomea” (priority 2008, dated 2011).

Assay [1] deals with human leukemic cell line U937. The experiment in a line: Mitochondrial transmembrane potential (DiOC6(3), flow cytometry). It is filed as cell-based. Conditions: 16 hours. An excerpt: Mitochondrial pathway is one of the pathways of apoptosis induction. In cells undergoing apoptosis, mitochondria were stimulated to regulate the Bcl-2 family of proteins, which made the inner and outer mitochondrial membrane unstable. Apoptigenic factors were further released to induce apoptosis. The apoptotic mechanism of dehydrosulphurenic acid in tumor cells was studied in this experiment by measuring the mitochondrial transmembrane potential.
Dehydrosulphurenic acid in the concentration of 5 μg/ml were used to treat human leukemic cell line U937 for 16 hours; while U937 cells treated with 4 μM anti-cancer drug Camptothecin for 16 hours were served as positive control, and cells without treatment were served as negative control. These cells were washed with PBS and incubated with 40 nM 3,3′-dihexyloxacarbocyanine (DiOC6(3), Molecular Probes, Eugene, Oreg.) in the dark at 37° C. for 15 min, and were detected by flowcytometry. Excitation and emission wavelength settings of 488 nm and 530 nm were used to detect the density of green fluorescence to further estimate mitochondrial membrane potential.

Assay [2] deals with human monoblastoid leukemic cell line U937. Kind of assay: In vitro survival assay (MTT) for anti-leukemia effects. It is filed as cell-based. On the procedure: The NCI anti-cancer drug screen model was adopted to test the anti-cancer effect of dehydrosulphurenic acid. Dehydrosulphurenic acid was added into the culture media of human monoblastoid leukemic cell line U937 to test for tumor cell survival. This survival assay was carried out with the widely known MTT assay. American Type Culture Collection (ATCC) purchased U937 cell line is from lymphoma cells, which belongs to one of human leukemic cell lines and was classified into monoblasts during hematopoietic differentiation.
MTT assay is commonly used to determine cell proliferation, percent of viable cells, and cytotoxicity. MTT (3-[4,5-dimethylthiazol-2-yl]2,5-diphenyltetrazolium bromide) is a yellow dye, which can be absorbed by the living cells and be reduced to purplish blue formazan crystals by succinate tetrazolium reductase in mitochondria. Formazan formation can therefore be used to assess and determine the survival rate of cells.
(§1) The human leukemic cell line U937 was cultivated in RPMI media containing fetal calf serum for 24 hours and maintained in exponential growth condition. The proliferated cells were treated with dehydrosulphurenic acid in the concentration of 0 (the control group), 1.25, 2.5, 5, and 10 μg/ml (the experimental group), respectively. The cells were incubated at 37° C. in a 5% CO2 incubator for 24-72 hours. MTT was added in a concentration of 500 μg/ml into each well in dark and incubated for 4 hours, followed by the addition of 500 μl of isopropanol to stop the reaction. The plates were read on an ELISA reader at wavelength of 570 nm to determine the survival rates. The results were reported as the average±(plus/minus) SEM (Standard Error in the Mean). For statistical analysis, the t-test were used to compare the difference between each experiment result. P<0.05 was considered statistically significant.

The subject of assay [3] is apoptosis- and mitotic catastrophe-related proteins in U937 cells. Kind of assay: Western blot analysis of apoptosis-related proteins. Conditions: 5 μg/ml; 0.5-16 hours. It is filed as cell-based, human. The source says:
Death receptor pathway is a signal transduction pathway of apoptosis induction. Some of the death factors, such as TNF-α and so on, bind with death receptor (DR) such as TNF family in the membrane to send death signal to cells and induce a series of apoptotic events. A family of aspartic acid-specific proteases, known as caspases, includes caspase-3 and caspase-8 would be activated during apoptotic process. Activated caspase can cleave downstream protein such as Poly(ADP-ribose) polymerase (PARP) to proceed through apoptosis. This experiment investigated the implication of the death receptor pathway in dehydrosulphurenic acid-induced apoptosis through Western blot analysis.
Dehydrosulphurenic acid in the concentration of 5 μg/ml were used to treat human leukemic cell line U937 for 0.5, 1, 2, 4, and 16 hours; while U937 cells treated with 4 μM anti-cancer drug Camptothecin for 16 hours were served as positive control, and cells without treatment were served as negative control. All the proteins from the cells were extracted with bicinchoninic acid (BCA) assay kit (Pierce, Rockford, Ill.). Equal amounts ([…]) of the protein were aliquoted and separated by electrophoresis on a 10% SDS-PAGE gel at a constant current of 20 mA and 70-100 volts. The proteins on the gel were transferred onto PVDF membranes, blocked with 5% non-fat milk, and incubated respectively with human-specific antibodies including: anti-Bcl-2, anti-Bax, anti-caspase 3, anti-caspase 8, anti-Cyclin B1, anti-p-Chk2 and anti-Actin (all were purchased from Transduction Laboratories, Lexington, Ky., USA) for 3 hours at room temperature. Secondary antibody horseradish peroxidase (purchased from Transduction Laboratories, Lexington, Ky., USA) was then added and the signals were detected under an Enhanced chemiluminescence system (ECS, Amersham Pharmacia, Piscataway, N.J.).
(In general: Immunoblotting shows a protein as a band on a membrane.)

The test system of assay [4] is human leukemic cell line U937. Kind of assay: Cell morphology analysis (Liu's staining). It is filed as cell-based. The conditions noted are these: treatment for 24-72 h. On the procedure: (§2) The human leukemic cell line U937 and the human pancreatic cancer cell line BxPc-3 were treated respectively with dehydrosulphurenic acid for 24-72 h and stained with Liu's staining solution. The morphological changes of cells with (the experimental group) or without dehydrosulphurenic acid treatment (the control group) were observed under inverted phase-contrast microscope and shown in FIG. 5 and FIG. 6.

Assay [5] has as its system human pancreatic cancer cell line BxPc-3. Kind of assay: Cell morphology analysis (Liu's staining). The conditions noted are these: 10 μg/ml. The class given is cell-based. On the procedure: as §2
The subject of assay [6] is human leukemic cell line U937. Kind of assay: Nuclear DNA changes, DNA ladder by DNA electrophoresis. The class given is cell-based. The conditions noted are these: 5 μg/ml; 24, 48, and 72 hours. On the procedure:
(§3) Besides the abovementioned morphological changes, biochemical changes of the dying cell during apoptosis include chromatin condensation, cell shrinkage and breaking into apoptotic bodies, internucleosomal DNA fragmentation into a multiple DNA ladder during the late stage of apoptosis (can be shown in DNA electrophoresis) and so on. To further define the effects of dehydrosulphurenic acid on U937 and BxPc-3 during apoptotic stages, DNA ladders were determined using DNA electrophoresis at the present experiment.
(§4) Dehydrosulphurenic acid in the concentration of 5 μg/ml were used to treat human leukemic cell line U937 and human pancreatic cancer cell line BxPc-3 for 24, 48, and 72 hours; while U937 cells treated with 4 μM anti-cancer drug Camptothecin for 24 hours were served as positive control. Then these cells were lyzed with 0.5 ml of lysis buffer (5 mM Tris-borate (TBE), pH8.0; 0.25 ml Nonidet P-40; 1 mM EDTA; 20 μg/ml RNase (Sigma, St. Louis, Mo.)) at 37° C. for 1 hour, followed by treating with 300 μg/ml proteinase K for 1 hour. Total DNAs were extracted and analyzed by 1.5% agarose gel electrophoresis in TBE buffer (5 mM TBE buffer containing 1 μM EDTA, pH 8.0).

Assay [7] deals with human pancreatic cancer cell line BxPc-3. The description is as above. The conditions noted are these: 5 μg/ml; 24, 48, and 72 hours; data not shown. It is filed as cell-based. On the procedure:
as §3, §4

Assay [8] has the same test system. The experiment in a line: In vitro survival assay (MTT) for anti-pancreatic cancer effects. The class given is cell-based. On the procedure:
The NCI anti-cancer drug screen model was also adopted to test the anti-cancer effect. Dehydrosulphurenic acid was added into the culture media of human pancreatic cancer cell line BxPc-3 to test for tumor cell survival. This survival assay was carried out with the abovementioned MTT assay. American Type Culture Collection (ATCC) purchased BxPc-3 cell line is from pancreatic cancer cells, which was originated from the epithelium of human pancreatic adenocarcinomas.
as §1, with “pancreatic cancer” for “leukemic”, “BxPc-3” for “U937”, “DMEM” for “RPMI”, “containing 100 IU/ml penicillin (Invitrogen, Carlsbad, Calif.), 100 IU/ml Streptomycin (Invitrogen, Carlsbad, Calif.), 2 mM glutamin (Invitrogen, Carlsbad, Calif.), 100 IU/ml penicillin (Invitrogen, Carlsbad, Calif.) and 10%” for “containing”, “(Atlanta Biologicals, Norcross, Ga.).” for “for 24 hours and maintained in exponential growth condition.”, “5” for “1.25, 2.5, 5,”

Assay [9] relates to human leukemic cell line U937. The experiment in a line: Cell cycle analysis by flow cytometer (propidium iodide). It is filed as cell-based. As to the method:
(§5) Flow cytometer was used to analyze the cell proliferation effect of dehydrosulphurenic acid toward human leukemic cell line U937 and human pancreatic cancer cell line BxPc-3.
(§6) Dehydrosulphurenic acid in the concentration of 1.25, 2.5, 5, and 10 μg/ml were used to treat human leukemic cell line U937 and the concentration of 5 and 10 μg/ml were used to treat human pancreatic cancer cell line BxPc-3; cells without addition of dehydrosulphurenic acid were served as the control group. The treated cells were fixed at […] with 70% ethanol for 1 hour and stained for 30 min with propidium iodide solution (propidium iodide, 0.5 mg/ml; RNAse, 0.1 mg/ml) contained in a CycleTEST PLUS DNA reagent kit (Becton Dickinson, Lincoln Park, N.J.). DNA content measurement on the collected 10^4 cells was performed on the FACS Calibur flow cytometer (Becton Dickinson, Calif., USA), and the cell cycle changes were analyzed using a ModFit software (Becton Dickinson).

In assay [10] the test system is human pancreatic cancer cell line BxPc-3. The description is as above. It is filed as cell-based. Conditions: 5 and 10 μg/ml; 2 to 3 days. On the procedure:
as §5, §6

Setting [11] is: concentration groups of 5 and 10 μg/ml, third day of experiment.

For `CC[C@@]1(O)C(=O)OCc2c1cc1n(c2=O)Cc2cc3ccccc3nc2-1` [Camptothecin, reference compound], in assay [1] (4 μM camptothecin (positive control)), the “decrease of mitochondrial transmembrane potential” value stood at 37.1%.

Broadly, the IC50 is the concentration at which inhibition is half-maximal. Consider `C=C(CC[C@@H](C(=O)O)C1C[C@H](O)[C@@]2(C)C3=CCC4C(C)(C)[C@@H](O)CC[C@]4(C)C3=CC[C@]12C)C(C)C` (stereo partly drawn) [dehydrosulphurenic acid, 24-methylenelanosta-7,9(11)-diene-3β,15α-diol-21-oic acid], for which the inhibitory rate entry in assay [2] (1.25, 2.5, 5, and 10 μg/ml (all groups), third day of experiment) was “more than 60%”; in [2] (setting [11]) it was “more than 95%”; in [8] (setting [11]) it was “more than 60%”. Further, the “growth inhibition of U937 cells” value in [2] (1.25, 2.5, 5, and 10 μg/ml, first day of experiment) was “inhibit the growth of U937 cells effectively”. The 50% inhibitory concentration (IC50) in [2] (Homo sapiens, U-937, MTT, data not shown, read-out: IC50 toward U937 cells) is approximately 2 µg/mL (≈ 4.13 µM); in [8] (Homo sapiens, BXPC-3, MTT, data not shown, read-out: IC50 toward BxPc-3 cells), approximately 5 µM. In addition, the highest inhibitory rate in assay [2] (third day of experiment) is 98.9%; in assay [8] (third day of experiment), 82.5%. Besides, the Bax expression entry in [3] was “not changed”. The Bcl-2 expression result in [3] is “slightly increased”. Further, the “cleavage of PARP” value in assay [3] is on record as “no cleavage”. In addition, the “cyclin B1 expression” value in [3] was “up-regulated”. Also, in [3], the “expression of caspase-3” value was “not altered”. The “expression of caspase-8” value in assay [3] is on record as “not altered”. Also, in assay [3], the “phosphorylation of Chk2” value is “augmented”. In addition, the morphological change result in assay [4] is “induced to undergo apoptosis and mitotic catastrophe”; in assay [5] (after 2 days of treatment) it was “typical cell apoptosis was observed”; in assay [5] (treatment for one day), “balloon-shaped cells were presented”. In addition, the DNA ladder entry in assay [6] is “obvious DNA ladders”; in assay [7], “no DNA ladder”. Also, the “growth inhibition of BxPc-3 cells” value in assay [8] (5 and 10 μg/ml, 24-72 hours) was “significantly inhibit the growth of BxPc-3 cells”. Also, the “decrease of mitochondrial transmembrane potential” value in assay [1] (5 μg/ml) is on record as “no significant decrease”. The cell cycle arrest entry in assay [9] (1.25-10 μg/ml, first day of experiment) is listed as “remarkable G2/M phase arrest”; in assay [10] it was “remarkable G0/G1 phase arrest”. The sub-G1 population result in assay [9] (higher concentration or second/third day of experiment) is given as “accumulating at sub-G1 population”; in assay [10], “increase of cell cycle arrest at sub-G1 population”. Also, the “percentage of cells with polyploidy” value in assay [9] (with increasing concentration) is “accompanied by increasing concentration”. Also, in [10], the “percentage of polyploidy cells” value is reported as “not changed”.
